Experimental data from publication PMC3785478, “Crystal Structures of Human Muscle Fructose-1,6-Bisphosphatase: Novel Quaternary States, Enhanced AMP Affinity, and Allosteric Signal Transmission Pathway” (PLoS ONE, 2013).

Tests used:
[1] = biological target: T1, human muscle fructose-1,6-bisphosphatase (hmFru-1,6-Pase) (Homo sapiens, UniProt O00757); assay: coupled enzyme assay (G6PDH/phosphoglucose isomerase, NADP, […] nm), AMP titration; type: biochemical; conditions: read-out: Wild-type Fru-1,6-Pase
T1 construct: gene FBP2
T1 sequence (O00757 1-339): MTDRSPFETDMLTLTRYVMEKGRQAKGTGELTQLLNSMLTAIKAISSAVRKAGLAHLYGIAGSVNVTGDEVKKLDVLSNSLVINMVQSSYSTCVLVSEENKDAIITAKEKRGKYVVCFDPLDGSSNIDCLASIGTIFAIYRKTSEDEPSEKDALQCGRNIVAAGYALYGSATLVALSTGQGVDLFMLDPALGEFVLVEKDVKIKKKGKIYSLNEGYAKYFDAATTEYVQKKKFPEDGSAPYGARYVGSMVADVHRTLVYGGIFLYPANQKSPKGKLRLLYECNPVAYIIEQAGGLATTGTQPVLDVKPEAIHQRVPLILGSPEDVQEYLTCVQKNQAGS

[2] = biological target: T2, human muscle fructose-1,6-bisphosphatase (hmFru-1,6-Pase) (Homo sapiens, UniProt O00757, Q33R); assay: also coupled enzyme inhibition assay (I0.[…]); type: biochemical
T2 construct: gene FBP2; model includes residues 11–54 and 72–335
T2 sequence (O00757 2-339 Q33R): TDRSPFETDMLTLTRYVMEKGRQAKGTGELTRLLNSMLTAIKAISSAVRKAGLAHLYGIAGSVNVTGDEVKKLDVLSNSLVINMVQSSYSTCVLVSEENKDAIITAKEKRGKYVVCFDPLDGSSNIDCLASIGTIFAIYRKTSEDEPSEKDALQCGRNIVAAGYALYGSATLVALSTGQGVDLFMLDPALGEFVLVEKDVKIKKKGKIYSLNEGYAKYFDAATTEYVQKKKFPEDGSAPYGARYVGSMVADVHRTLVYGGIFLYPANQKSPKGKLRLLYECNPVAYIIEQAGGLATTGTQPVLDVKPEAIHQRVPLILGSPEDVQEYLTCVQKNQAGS

For Nc1ncnc2c1ncn2[C@@H]1O[C@H](COP(=O)(O)O)[C@@H](O)[C@H]1O [AMP], which IC50 [1] is on record?
Its IC50 is 190 nM.

And the IC50 [2]?
Its IC50 is 3650 nM.
